Data as given in ChEMBL document CHEMBL5137093, “Improving Drug Delivery While Tailoring Prodrug Activation to Modulate Cmax and Cmin by Optimization of (Carbonyl)oxyalkyl Linker-Based Prodrugs of Atazanavir” (J Med Chem, 2022).
pIC50: −log10 of the molar value.

Experiments:
[1] = Relative AUC ratio of Atazanavir in Sprague-Dawley rat at 1 ml/kg,iv measured upto 24 hrs by UPLC-MS/MS analysis; type: ADME; conditions: in vivo
[2] = Relative Cmax ratio of Atazanavir in Sprague-Dawley rat at 1 ml/kg,iv measured upto 24 hrs by UPLC-MS/MS analysis; type: ADME; conditions: in vivo
[3] = biological target: Voltage-gated inwardly rectifying potassium channel KCNH2 (Homo sapiens, UniProt Q12809); test: Inhibition of human ERG by patch-clamp assay; type: toxicity
[4] = Relative AUC ratio of Atazanavir in Sprague-Dawley rat at 3 ml/kg,po measured upto 24 hrs by UPLC-MS/MS analysis; type: ADME; conditions: in vivo
[5] = Aqueous stability of the compound in acetate buffer at pH 4 assessed as compound half life measured after 24 hrs by UPLC analysis; type: physicochemical; conditions: buffer, pH 4, 24 h, 24 h
[6] = Tmax in Sprague-Dawley rat at 25 ml/kg,po measured upto 24 hrs by UPLC-MS/MS analysis; type: ADME; conditions: in vivo
[7] = Volume of distribution at steady state in Sprague-Dawley rat at 1 ml/kg,iv measured upto 24 hrs by UPLC-MS/MS analysis; type: ADME; conditions: in vivo, read-out: Vdss
[8] = Ratio of Cmax/Cmin of Atazanavir in Sprague-Dawley rat at 3 ml/kg,po measured after 24 hrs by UPLC-MS/MS analysis; type: ADME; conditions: in vivo
[9] = AUClast in Sprague-Dawley rat at 25 ml/kg,po measured upto 24 hrs by UPLC-MS/MS analysis; type: ADME; set-up: time < 24 hrs, dose 25 ml/kg, route po; conditions: in vivo
[10] = Cmax in Sprague-Dawley rat at 25 ml/kg,po measured upto 24 hrs by UPLC-MS/MS analysis; type: ADME; set-up: time < 24 hrs, dose 25 ml/kg, route po; conditions: in vivo
[11] = Fold ratio of total AUC of Atazanavir in Sprague-Dawley rat at 3 ml/kg,po measured upto 24 hrs by UPLC-MS/MS analysis; type: ADME; conditions: in vivo
[12] = Fold ratio of total AUC of Atazanavir in Sprague-Dawley rat at 1 ml/kg,iv measured upto 24 hrs by UPLC-MS/MS analysis; type: ADME; conditions: in vivo
[13] = Cmax in Sprague-Dawley rat at 3 ml/kg,po measured upto 24 hrs by UPLC-MS/MS analysis; type: ADME; set-up: dose 3 ml/kg, time < 24 hrs, route po; conditions: in vivo
[14] = Ratio of AUC of Atazanavir in Sprague-Dawley rat at 3 ml/kg,po measured upto 24 hrs by UPLC-MS/MS analysis; type: ADME; conditions: in vivo
[15] = Relative Cmax ratio of Atazanavir in Sprague-Dawley rat at 3 ml/kg,po measured upto 24 hrs by UPLC-MS/MS analysis; type: ADME; conditions: in vivo
[16] = Ratio of AUC of Atazanavir in Sprague-Dawley rat at 25 ml/kg,po measured upto 24 hrs by UPLC-MS/MS analysis; type: ADME; conditions: in vivo
[17] = Ratio of Cmax/Cmin of Atazanavir in Sprague-Dawley rat at 1 ml/kg,iv measured after 24 hrs by UPLC-MS/MS analysis; type: ADME; conditions: in vivo
[18] = AUClast in Sprague-Dawley rat at 3 ml/kg,po measured upto 24 hrs by UPLC-MS/MS analysis; type: ADME; set-up: time < 24 hrs, dose 3 ml/kg, route po; conditions: in vivo
[19] = biological target: T1, UDP-glucuronosyltransferase 1A1 (Homo sapiens, UniProt P22309); test: Inhibition of human recombinant UGT1A1 using bilirubin as substrate incubated for 40 mins by LC-MS/MS analysis
T1 sequence (P22309 whole entry): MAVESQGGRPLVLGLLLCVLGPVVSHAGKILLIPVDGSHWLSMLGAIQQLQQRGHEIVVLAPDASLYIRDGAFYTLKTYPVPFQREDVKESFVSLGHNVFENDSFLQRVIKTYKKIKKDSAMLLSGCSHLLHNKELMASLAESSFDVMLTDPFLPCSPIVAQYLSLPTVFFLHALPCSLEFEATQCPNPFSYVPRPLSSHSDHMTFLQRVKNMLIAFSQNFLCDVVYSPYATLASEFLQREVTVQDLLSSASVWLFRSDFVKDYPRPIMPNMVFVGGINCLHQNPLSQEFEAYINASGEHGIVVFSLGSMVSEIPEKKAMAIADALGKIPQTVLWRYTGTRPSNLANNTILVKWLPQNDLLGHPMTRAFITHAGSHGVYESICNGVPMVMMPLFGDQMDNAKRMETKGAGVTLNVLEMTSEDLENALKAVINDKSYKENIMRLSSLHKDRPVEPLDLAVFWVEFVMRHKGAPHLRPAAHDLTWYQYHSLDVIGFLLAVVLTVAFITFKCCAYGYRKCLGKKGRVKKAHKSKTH

[20] = Aqueous stability of the compound in phosphate buffer at pH 6.5 assessed as compound half life measured after 24 hrs by UPLC analysis; type: physicochemical; conditions: buffer, pH 6.5, 24 h, 24 h
[21] = Aqueous solubility of compound at pH 4 by UPLC analysis; type: physicochemical; conditions: buffer
[22] = Ratio of AUC of Atazanavir in Sprague-Dawley rat at 1 ml/kg,iv measured upto 24 hrs by UPLC-MS/MS analysis; type: ADME; conditions: in vivo
[23] = Ratio of Cmax/Cmin of Atazanavir in Sprague-Dawley rat at 25 ml/kg,po measured after 24 hrs by UPLC-MS/MS analysis; type: ADME; conditions: in vivo
[24] = Clearance in Sprague-Dawley rat at 1 ml/kg,iv measured upto 24 hrs by UPLC-MS/MS analysis; type: ADME; conditions: in vivo
[25] = Relative AUC ratio of Atazanavir in Sprague-Dawley rat at 25 ml/kg,po measured upto 24 hrs by UPLC-MS/MS analysis; type: ADME; conditions: in vivo
[26] = biological target: T1, UDP-glucuronosyltransferase 1A1; test: Inhibition of UGT1A1 in human liver microsomes using beta-estradiol as substrate incubated for 40 mins by LC-MS/MS analysis; set-up: species or system Microsome
[27] = AUClast in Sprague-Dawley rat at 1 ml/kg,iv measured upto 24 hrs by UPLC-MS/MS analysis; type: ADME; set-up: dose 1 ml/kg, time < 24 hrs, route iv; conditions: in vivo
[28] = Relative Cmax ratio of Atazanavir in Sprague-Dawley rat at 25 ml/kg,po measured upto 24 hrs by UPLC-MS/MS analysis; type: ADME; conditions: in vivo
[29] = Cmax in Sprague-Dawley rat at 1 ml/kg,iv measured upto 24 hrs by UPLC-MS/MS analysis; type: ADME; set-up: dose 1 ml/kg, time < 24 hrs, route iv; conditions: in vivo
[30] = Aqueous solubility of compound at pH 1 by UPLC analysis; type: physicochemical; conditions: buffer
[31] = Half life in Sprague-Dawley rat at 1 ml/kg,iv measured upto 24 hrs by UPLC-MS/MS analysis; type: ADME; conditions: in vivo
[32] = Tmax in Sprague-Dawley rat at 3 ml/kg,po measured upto 24 hrs by UPLC-MS/MS analysis; type: ADME; conditions: in vivo
[33] = Fold ratio of total AUC of Atazanavir in Sprague-Dawley rat at 25 ml/kg,po measured upto 24 hrs by UPLC-MS/MS analysis; type: ADME; conditions: in vivo
[34] = Ratio of Cmax/Cmin of Atazanavir in Sprague-Dawley rat at 30 ml/kg,po measured after 24 hrs by UPLC-MS/MS analysis; type: ADME; conditions: in vivo
[35] = AUClast in Sprague-Dawley rat at 30 ml/kg,po measured upto 24 hrs by UPLC-MS/MS analysis; type: ADME; set-up: time < 24 hrs, dose 30 ml/kg, route po; conditions: in vivo
[36] = Cmax in Sprague-Dawley rat at 30 ml/kg,po measured upto 24 hrs by UPLC-MS/MS analysis; type: ADME; set-up: time < 24 hrs, dose 30 ml/kg, route po; conditions: in vivo
[37] = Relative AUC ratio of Atazanavir in Sprague-Dawley rat at 30 ml/kg,po measured upto 24 hrs by UPLC-MS/MS analysis; type: ADME; conditions: in vivo
[38] = Relative Cmax ratio of Atazanavir in Sprague-Dawley rat at 30 ml/kg,po measured upto 24 hrs by UPLC-MS/MS analysis; type: ADME; conditions: in vivo
[39] = Fold ratio of total AUC of Atazanavir in Sprague-Dawley rat at 30 ml/kg,po measured upto 24 hrs by UPLC-MS/MS analysis; type: ADME; conditions: in vivo
[40] = Ratio of AUC of Atazanavir in Sprague-Dawley rat at 30 ml/kg,po measured upto 24 hrs by UPLC-MS/MS analysis; type: ADME; conditions: in vivo
[41] = Tmax in Sprague-Dawley rat at 30 ml/kg,po measured upto 24 hrs by UPLC-MS/MS analysis; type: ADME; conditions: in vivo

Voltage-gated inwardly rectifying potassium channel KCNH2, sequence (Q12809 whole entry): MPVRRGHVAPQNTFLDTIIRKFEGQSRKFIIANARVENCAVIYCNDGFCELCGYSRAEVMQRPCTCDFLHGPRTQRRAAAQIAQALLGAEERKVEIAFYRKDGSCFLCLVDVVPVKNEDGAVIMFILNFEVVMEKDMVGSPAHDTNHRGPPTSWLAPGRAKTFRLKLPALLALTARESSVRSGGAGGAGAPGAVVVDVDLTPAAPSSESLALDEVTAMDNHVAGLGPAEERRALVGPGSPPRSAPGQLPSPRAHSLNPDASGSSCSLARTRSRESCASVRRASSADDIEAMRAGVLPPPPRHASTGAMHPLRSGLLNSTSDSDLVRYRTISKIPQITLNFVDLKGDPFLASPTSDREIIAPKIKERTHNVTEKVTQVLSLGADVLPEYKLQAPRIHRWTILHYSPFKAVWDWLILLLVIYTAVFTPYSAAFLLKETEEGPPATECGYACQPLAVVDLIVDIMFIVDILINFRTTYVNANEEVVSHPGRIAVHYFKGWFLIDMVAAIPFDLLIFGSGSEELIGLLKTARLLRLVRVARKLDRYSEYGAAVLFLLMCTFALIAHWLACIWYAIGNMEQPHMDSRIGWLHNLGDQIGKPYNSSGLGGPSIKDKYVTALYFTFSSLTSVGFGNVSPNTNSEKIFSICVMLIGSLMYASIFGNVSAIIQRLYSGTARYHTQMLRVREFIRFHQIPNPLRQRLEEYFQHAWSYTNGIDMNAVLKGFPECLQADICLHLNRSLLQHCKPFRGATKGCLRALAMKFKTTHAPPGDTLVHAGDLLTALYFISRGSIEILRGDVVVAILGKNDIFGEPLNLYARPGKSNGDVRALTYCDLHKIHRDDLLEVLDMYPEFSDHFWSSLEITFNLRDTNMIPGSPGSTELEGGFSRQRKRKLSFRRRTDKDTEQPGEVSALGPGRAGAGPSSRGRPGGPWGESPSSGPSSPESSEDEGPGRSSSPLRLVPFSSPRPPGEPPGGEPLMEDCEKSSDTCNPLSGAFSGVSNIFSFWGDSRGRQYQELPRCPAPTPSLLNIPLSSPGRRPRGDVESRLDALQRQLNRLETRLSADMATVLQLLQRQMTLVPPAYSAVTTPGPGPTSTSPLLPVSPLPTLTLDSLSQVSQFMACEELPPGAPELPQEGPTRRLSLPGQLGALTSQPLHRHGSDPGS

Ratio [1] | Ratio [2] | Ratio [4] | t1/2 [5] [h] | Vd [7] [L/kg] | Ratio [8] | Ratio [11] | Ratio [12] | Ratio [14] | Ratio [15] | Ratio [17] | t1/2 [20] [h] | solubility [21] [µg/mL] | Ratio [22] | clearance [24] [mL/min/kg] | AUC(0-t) at 24 h [27] [µM·h] | Cmax [29] [nM] | solubility [30] [µg/mL] | half-life [31] [h] | SMILES | other results
7.3 | 1.01 | 17.7 | 334.3 | 7.7 | 86.9 | 18 | 7.8 | 0.02 | 8.2 | 431.7 | 15.3 | > 1900 | 0.08 | 47 | 0.356 | 371 | > 1900 | 4 | COC(=O)N[C@H](C(=O)N[C@@H](Cc1ccccc1)[C@H](CN(Cc1ccc(-c2ccccn2)cc1)NC(=O)[C@@H](NC(=O)OC)C(C)(C)C)OC(=O)OC(OC(=O)[C@H](N)C(C)C)C(C)C)C(C)(C)C (stereo in doubt; 5j) | pIC50 [3]: 5.06; Tmax [6]: 2.3 h; AUC(0-t) at 24 h [9]: 1.23 µM·h; Cmax [10]: 123 nM; Cmax ([13]; 24 h): 93 nM; Ratio [16]: 0.03; AUClast ([18]; 24 h): 0.12 µM·h; pIC50 [19]: 6.00; Ratio [23]: 27.8; Ratio [25]: 1.88; pIC50 [26]: 5.68; Ratio [28]: 1; Tmax ([32]; po, 24 h): 0.4 h; Ratio [33]: 1.94
2.3 | 0.11 | 7.3 | 334.3 | 1 | 6.4 | 111.7 | 18.8 | 14.4 | 1 | 22.8 | 9.2 | > 1300 | 7.31 | 2 | 10.5 | 2180 | > 2000 | 7 | COC(=O)N[C@H](C(=O)N[C@@H](Cc1ccccc1)[C@H](CN(Cc1ccc(-c2ccccn2)cc1)NC(=O)[C@@H](NC(=O)OC)C(C)(C)C)OC(=O)OC(OC(=O)[C@@H](NC(=O)[C@H](N)C(C)C)C(C)C)C(C)C)C(C)(C)C (stereo in doubt; 6h) | Ratio [34]: 5.8; AUC(0-t) at 24 h [35]: 68.3 µM·h; Cmax [36]: 4130 nM; Ratio [37]: 0.29; Cmax ([13]; Sprague-Dawley, 3 ml/kg): 3060 nM; Ratio [38]: 0.08; AUC(0-t) at 24 h ([18]; Sprague-Dawley, 3 ml/kg): 40.1 µM·h; Ratio [39]: 3.56; Ratio [40]: 11.46; Tmax [41]: 3 h; Tmax ([32]; Sprague-Dawley, read-out: Tmax): 3 h
